# Results taken from patent US20250143307A1 (priority 2021, published 2025).
# Columns and labels:
# [1] = Manual friction / abrasion resistance of electrostatically sprayed coatings on glass slides; format: physicochemical; settings: glass slide
# Method: A glass slide was treated according to the following protocol: • 1) The surface was prepared by cleaning with isopropanol, and allowed to dry; • 2) The sprayer was held about 1 m from the target surface. • 3) The titanium anatase phase in aqueous solution (a mixture of peroxotitanic acid and peroxo-modified anatase sol 0.8%) was sprayed onto the surface using an electrostatic sprayer to form a coating on the target surface. • 4) The surface was allowed to dry for 5 to 10 minutes. • 5) The electrostatic sprayer was rinsed with distilled water. • 6) The biocidal polymer coating solution was added to the sprayer tank. • 7) The biocidal polymer coating solution was sprayed onto the surface at a 1 m distance away from the surface. • 8) The surface was examined to ensure it was not over-saturated with coating solution. • 9) The surface was allowed to dry for several hours.
# A second glass slide was treated according to the protocol described above, except the surface was coated with the biocidal polymer solution first, followed by the titanium anatase phase.
# In both methods, it was observed that the coating resisted repeated manual friction (over 20 cycles) using both wetted and dry paper towel, cotton-based cloth, and polyester/polypropylene wipes.
# Treated and control glass slides were transferred to a 1% fluorescein solution for 10 minutes. […]
# [2] = Surface charge determination by fluorescein test; format: physicochemical; settings: activated glass coverslips, spin-coated, baked at 110° C. for 60 minutes
# Method: Surface cationic density (N^+/cm^2) was calculated using UV/Vis absorbance of fluorescein. Fluorescein dye molecules (negatively charged) strongly bind to quaternary amino groups (positively charged) belonging to the polymeric chain. The stoichiometry of fluorescein binding is estimated at one dye molecule per four quaternary ammonium moieties. Treated plates were placed in a 1% fluorescein aqueous solution for five minutes, and then rinsed and sonicated in distilled water for several minutes in order to remove physisorbed fluorescein. Plates were rinsed with distilled water and immersed in 3 mL of CTAB 0.5% (aqueous solution of cetyltrimehylammonium bromide) along with PBS (Phosphate-Buffered Saline) (90% CTAB/10% PBS) and sonicated for 10 minutes. The optical density of chemisorbed fluorescein was measured at 501 nm wavelength.
SMILES,"resistance of coating to repeated manual friction ([1]; sprayed with titanium anatase 0.8%, wetted and dry paper towel, cotton cloth, polyester/polypropylene wipes)","abrasion resistance by fluorescein test after manual friction ([1]; titanium anatase sprayed first, then the coating solution)",Calculated surface cationic density [2]
CCCCCCCCCCCCCCCCCC[N+](C)(C)CCC[Si](OC)(OC)OC.[Cl-] [octadecyldimethyl(3-trimethoxysilylpropyl)ammonium chloride],did not resist manual friction,did not resist minor abrasion,–
CCCCCCCCCCCCCCCCCC[N+](C)(C)CC(=O)c1ccc(O)c(O)c1,–,–,4×10^14 cations/cm^2
